Results reported in US20100310574A1, “METHODS AND COMPOSITIONS FOR THE TREATMENT AND DIAGNOSIS OF STATIN-INDUCED MYOPATHY” (Beth Israel Deaconess Medical Center, priority 2007, published 2010).
Entries after “also recorded” stand apart in the source; their conditions may differ.

Tests used:
atrogin-1 promoter = test: Atrogin-1 promoter luciferase reporter in zebrafish embryos; format: in vivo, Danio rerio; details: 0.5 μM
Protocol: (§1) The effect of lovastatin on FoxO-dependent activation of the atrogin-1 promoter in zebrafish embryos was also examined. Embryos were injected with a proximal fragment of the atrogin-1 promoter linked to luciferase or the same fragment with the FoxO site mutated (Sandri et al., Cell 117:399-412, 2004). Lovastatin (0.5 μM) stimulated the reporter luciferase activity more than 7-fold, while stimulating the FoxO-less reporter only 3-fold (FIG. 14B). […] Since lovastatin treatment still lead to a small amount of luciferase activity even in the absence of FoxO binding sites in the atrogin-1 promoter-reporter, additional signaling pathways may also be important in mediating the effects of statins on atrogin-1 expression in muscle.

[1] = test system: atrogin-1 wildtype primary myotubes; test: Myotube size, wildtype primary mouse myotubes; format: cell-based; details: control (wildtype) cultures, two days of exposure
zebrafish atrogin-1 = test: Atrogin-1 mRNA and protein expression in zebrafish embryos; format: in vivo, Danio rerio; details: lovastatin treatment
Protocol: (§2) Zebrafish lines and maintenance: Adult zebrafish (Danio rerio) were maintained as described under standard laboratory conditions at 28.5° C. in a 14 h light/10 h dark cycle (Westerfield, “The zebrafish book: a guide for the laboratory use of zebrafish Danio (Brachydanio) rerio,” Institute of Neuroscience, University of Oregon, Eugene, Oreg., 1993). Developmental stages were determined by embryo morphology and hours post fertilization (hpf) (Kimmel et al., Dev. Dyn. 203:253-310, 1995). To examine the effects of statin, the embryos at 20-24 hpf were immersed in the embryonic water ([…], 170 μM KCl, 330 μM CaCl2, and 330 μM MgSO4) at a concentration of 0.005-10 μM lovastatin (Mevinolin; Sigma, St. Louis, Mo.) including 0.003% 1-phenyl-2-thiourea (Sigma) to inhibit pigmentation in 24 well plate. After 32 hpf, the embryos were fixed by 4% paraformaldehyde in PBS.
Western blotting: Zebrafish embryos were homogenized in SDS sample buffer (30 embryos/30 μl of sample buffer) with microfuge pestle until the lysate became uniform in consistency and there was no longer stringy inside. The lysate was boiled for 5 minutes and centrifuged supernatant was processed for Western blotting (Hanai et al., J. Cell Biol. 158:529-539, 2002).

atrogin-1 mRNA = test: Atrogin-1 mRNA in C2C12 myocytes by real time PCR; format: cell-based, mouse; details: 10 μM
Protocol: Quantitative PCR: Atrogin-1 mRNA levels were determined by real-time PCR using the Applied Biosystems® 7500 real-time PCR analyzer according to the method recently described by others (Okuno et al., Blood 100:4420-4426, 2002, and Yang et al., J. Cell Biochem. 94:1058-1067, 2005). Multiplexed amplification reactions were performed using 18S rRNA as an endogenous control (18S rRNA primers/VIC-labeled probe Applied Biosystems #4310893E) using the TaqMan One Step PCR Master Mix reagents Kit (#4309169, Applied Biosystems). The following settings were used: Stage 1 (reverse transcription): 48° C. for 30 min; Stage 2 (denaturation): 95° C. for 10 min; and Stage 3 (PCR): 95° C. for 15 sec and 60° C. for 60 sec for 40 cycles. […] Fluorescence data were analyzed by SDS1.7 software (Applied Biosykems). […] All RNA samples were analyzed in triplicate, with the mean value used in subsequent analyses.
Cell Culture: Mouse myoblast cell line C2C12 was purchased from ATCC (ATCC, Manassas, Va.) and maintained in DMEM (Mediatech, Herndon, Va.) containing 10% fetal bovine serum (Hyclone, Logan, Utah) and penicillin (100U) and streptomycin (50 ug/ml; Invitrogen, Grand Island, N.Y.). […]
Quantitative PCR: Performed as described above.

functional mitochondria = test: MitoTracker staining and FACS of cells from zebrafish embryos; format: in vivo, Danio rerio; details: lovastatin 0.5 or 1.0 μM
Protocol: Mitochondrial staining and FACS analysis: Embryos were treated with lovastatin (0, 0.5, 1.0 μM at 20-32 hpf) or treated with the combination of lovastatin (0.5 μM) following PGC-1α (or vehicle) cDNA injection (100 pg/embryo at the one-cell stage). 1-Phenyl-2-thiourea (0.003%; Sigma) was added at 20 hpf. After phenotypes were observed, 100 embryos from each condition were decholionated by protease and homogenized for 3-5 minutes in 0.9× phosphate buffered saline (PBS)/10% fetal bovine serum (FBS), then centrifuged at 3000 rpm for 5 minutes, digested with trypsin/EDTA and dispersed at room temperature. After adding 1 mL of 0.9×PBS/10% FBS, the dispersed cells were filtered ([…]) and washed twice with 0.9×PBS/10% FBS. The cells were incubated in 100 nM MitoTracker Red CMXRos (Invitrogen) in 0.9×PBS/10% FBS for 15 minutes in the dark. The cells were washed twice in 0.9×PBS/10% FBS and subjected to […] (FACS) analysis. EPICS XL (Beckman Coulter) was used for the fluorescence detection (absorption wavelength: 578 nm; emission wavelength: 599 nm) and data was analyzed with Expo32ADC software. Ten thousand cells were counted for each treatment condition.

[2] = Clinical data (CK) of statin-treated patients who gave muscle biopsies; format: in vivo, human; details: patient with muscle pain/damage concomitantly treated with the statin; one patient per line
Protocol: The atrogin-1 mRNA levels were measured in 17 human quadriceps muscle biopsies from five patients undergoing knee replacements (controls), from four patients with muscle pain but not being treated with statins, and from eight patients with muscle pain/damage concomitantly being treated with statins (the table below).
Muscle biopsies: Muscle was obtained from three groups of patients whose characteristics are detailed in the above table. The statin-treated group included four subjects with statin-induced myopathy and 4 with statin-induced rhabdomyolysis, as commonly defined (Antons et al., Am. J. Med. 119:400-409, 2006). The non-statin myopathy group included four statin-naïve subjects with undefined myopathy. Both of these groups underwent percutaneous muscle biopsies of the vastus lateralis muscle using a Bergstrom needle. The control group included five statin-naïve subjects who volunteered muscle at the time of knee arthroplasty. Muscle from subjects in all three groups was snap frozen in liquid nitrogen for subsequent analysis. All subjects signed an IRB-approved consent form.

[3] = test system: phosphor-Akt, phosphor-FoxO3, and phosphor-p70S6K; test: Phosphorylated Akt/FoxO3/p70S6K in C2C12 myotubes (immunoblot); format: cell-based, mouse; details: 1, 2.5 or 5 μM, 24 hours
Protocol: Western Blotting Cultured cells after treatment were collected at specific times and solubilized in RIPA lysis buffer (50 mM Tris-HCl, pH 7.4; 150 mM NaCl, 1% NP-40, 0.5% sodium deoxycholate, 0.1% SDS (Boston Bioproducts, Boston Mass.), protease (Roche) and phosphatase (Sigma) inhibitor cocktail). Proteins were separated by SDS-PAGE, transferred to PVDF membranes and visualized by Western blotting using alkaline phosphatase-based CDP-star chemiluminescent detection according to manufacturer's protocol (Applied Biosystems, Bedford, Mass.).
as §1

atrogin-1 protein = test: Atrogin-1 protein in C2C12 myotubes by Western blotting; format: cell-based, mouse; details: vs non-treated control cells
Protocol: Western Blotting Cultured cells after treatment were collected at specific times and solubilized in RIPA lysis buffer (50 mM Tris-HCl, pH 7.4; 150 mM NaCl, 1% NP-40, 0.5% sodium deoxycholate, 0.1% SDS (Boston Bioproducts, Boston Mass.), protease (Roche) and phosphatase (Sigma) inhibitor cocktail). […]

Zebrafish embryos = test: Zebrafish embryo muscle fiber damage (myosin heavy chain staining); format: in vivo, Danio rerio
Protocol: Zebrafish embryos were treated with lovastatin from 20 hpf to 32 hpf at different concentrations (0-5 μM).
as §2
Antibody staining: Whole zebrafish staining: Zebrafish embryos were fixed by 4% paraformaldehyde in PBS overnight. After fixation, the embryos were washed by PBS, stored for at least 1 h at −20° C. in methanol, and permeabilized for 30 min at −20° C. in acetone. Embryos were incubated with blocking buffer (1% BSA, 0.1% Tween-20 in PBS), and incubated with diluted primary antibody, anti-slow twitch myosin F59 (1: 200; Developmental Studies Hybridoma Bank (DSHB), Department of Biological Sciences, University of Iowa, Iowa City, Iowa 52242) (Crow and Stockdale, Dev. Biol. 118:333-342, 1986; and Devoto et al., Development 122:3371-3380, 1996) in blocking solution for overnight at 4° C. Staining was detected by using goat anti-mouse TRITC secondary antibody (1:200; Southern Biotechnology Associates, Inc.) in blocking solution for 4 h at RT (Birely et al., Dev. Biol. 280:162-176, 2005). Cross-sectional staining: Embryos were fixed overnight in 4% paraformaldehyde (PFA) and cryoprotected by the overnight incubation with increasing concentrations of sucrose (up to 30%). Samples were embedded in OCT compound and then equilibrated to −80° C. Sections (10 μm thick) were collected on SuperFrost/Plus slides and dried. Sections were rehydrated in PBS and blocked for 1 h in blocking buffer (1% BSA, 0.1% Tween in PBS). Sections were incubated overnight at 4° C. with primary antibody diluted in blocking buffer. Sections were stained with antibody as above.

atrogin-1 (−/−) myotubes = test: Myotube size, atrogin-1 (-/-) primary mouse myotubes; format: cell-based; details: 0.25 and 1.0 μM
Protocol: (§3) Myotube Fiber Size: Size was quantified by measuring a total of 200 tube diameters as described by Sandri et al. (supra). Briefly, muscle fiber size from four random fields at 100 magnification was measured using IMAGE software (Scion, Frederick, Md.). All data were expressed in Mean±S.E.M. Comparisons were made by using the Student's T-test, with p<0.05 being considered statistically significant.
Cell Culture: Primary mouse myoblasts from atrogin-1 null mice (Regeneron, Tarrytown N.Y.) were isolated as follows: muscle was removed from the hind limbs of two-week old mice. After treatment with 0.1% collagenase D and Dispase II (Roche, Indianapolis, Ind.), the isolated cells were plated on collagen (Type I, Roche, Indianapolis, Ind.)-coated dishes. Myoblasts were subsequently enriched and cultured in F-10 nutrient medium with 20% fetal calf serum and 2.5 ng/ml bFGF (Invitrogen, Grand Island, N.Y.). Myotubes were induced in differentiation medium. All media contained 1× Primocin (InvivoGen, San Diego, Calif.). The cultures were maintained at 37° C., under 5% and 8% CO2 humidified air atmosphere for myoblasts and myotubes, respectively. Cultures were ready to use in assays on day 2 in differentiation medium when the myotubes had formed and were contracting.

C2C12 myotubes = test: Proteolytic rate in C2C12 myotubes (3H-tyrosine release); format: cell-based, mouse; details: compared with control cultures
Protocol: Measurement of Proteolytic Rate: Differentiated C2C12 myotubes were incubated with ^3H-tyrosine (5 μCi/mL media) for 20 hours to label cell proteins, and switched to medium containing 2 mM unlabeled tyrosine, vehicle, lovastatin, or dexamethasone for another 20 hours. After media replacement, an aliquot of medium was collected once per hour for 4 hours. The collected media was treated with TCA (10% w/v final concentration) to precipitate protein. Since the high concentration of unlabeled tyrosine in the media prevents re-incorporation of ^3H-tyrosine into new protein, the radioactivity in the supernatant represent degraded protein from the pool of prelabeled, intracellular, long-lived proteins. Proteolytic rate was defined as the percentage of released radioactivity per hour calculated from the period of 20 hours to 24 hours of lovastatin or dexamethasone treatment, when ^3H-tyrosine release is linear over time. These rates were compared with proteolytic rates in parallel cultures treated with vehicle alone. All measurements were done in triplicate and then independently repeated at least twice.

[4] = test system: differentiated C2C12 mouse myocytes; test: C2C12 myotube morphology and diameter; format: cell-based
From the text: The effect of statins on muscle cells was studied by treating differentiated C2C12 mouse myocytes with various concentrations of lovastatin. […] The reduction of myotube size was quantitated by measurement of myotube thickness. This effect was clearly visible at low lovastatin concentrations, in the range of those typically found in patients administered with this medication (Pan et al., J. Clin. Pharmacol. 30:797-801, 2002, and Hostein et al., Cancer Chemother. Pharmacol. 57:155-164, 2006).
Cell Culture: Mouse myoblast cell line C2C12 was purchased from ATCC (ATCC, Manassas, Va.) and maintained in DMEM (Mediatech, Herndon, Va.) containing 10% fetal bovine serum (Hyclone, Logan, Utah) and penicillin (100U) and streptomycin (50 ug/ml; Invitrogen, Grand Island, N.Y.). When C2C12 cells reach to 90% confluence, medium was replaced with differentiation medium of DMEM supplemented with 2% horse serum (ATCC, Manassas, Va.) to induce myotube formation. Cells were used for experiments in 4-5 days after differentiation. Lovastatin (>98% purity) (mevinolin; Sigma, St. Louis, Mo.) was prepared as a 50 mM stock solution in DMSO as reagent vehicle, further diluted in DMSO, and added into the medium. The final volume DMSO in medium is not more than 0.125%, which there is not obvious cytotoxicity. Equal volume of reagent vehicle was used for all experiments and reagent vehicle only serviced as controls. Each experiment was performed at least three times.
as §3

[5] = before withdrawal in August 2001; cited from earlier work

SMILES: CC[C@H](C)C(=O)O[C@H]1C[C@@H](C)C=C2C=C[C@H](C)[C@H](CC[C@@H]3C[C@@H](O)CC(=O)O3)[C@H]21 [lovastatin]
- stimulation of reporter luciferase activity (atrogin-1 promoter; FoxO-less (FoxO site mutated) reporter): 3 fold
- stimulation of reporter luciferase activity (atrogin-1 promoter; atrogin-1 promoter fragment with FoxO site): more than 7 fold
- decrease of tube diameter [1]: ≤ 50%
- zebrafish atrogin-1 mRNA and protein level (zebrafish atrogin-1): clearly and dose-dependently elevated
- atrogin-1 mRNA (atrogin-1 mRNA; 6 hours): significantly increased
- atrogin-1 mRNA induction (atrogin-1 mRNA; 36 hours): ≤ 6 fold
- MitoTracker fluorescence intensity (functional mitochondria): shifted to the left
- CK (clinical data) [2]: Weakness, CK 932
- phosphorylated signaling intermediates [3]: dose-dependent reduction
- atrogin-1 induction (protein) (atrogin-1 protein; 1.0 μM, 48 hours): about 1.5 fold
- atrogin-1 induction (protein) (atrogin-1 protein; 10 μM): about 2.5 fold
- muscle phenotype (Zebrafish embryos; 0-5 μM, 20 hpf to 32 hpf): clear dose-dependent muscle phenotypes
- embryos with class 1 defects (Zebrafish embryos; 0.05 μM): more than 50%
- embryos with class 3 changes (Zebrafish embryos; 5 μM): over 60%
- concentration giving class 1 changes (bowing, gap formation, fiber disruption) (Zebrafish embryos; 20 hpf to 32 hpf): 25 to 50 nM
- concentration giving class 2 changes (fiber thinning, attenuated MHC staining) (Zebrafish embryos; 20 hpf to 32 hpf): 50 to 500 nM
- concentration giving class 3 changes (irregular somite boundaries) (Zebrafish embryos; 20 hpf to 32 hpf): 1000 to 5000 nM
- change in myotube size (atrogin-1 (−/−) myotubes): Little change in myotube size
- increase in the rate of bulk muscle proteolysis (C2C12 myotubes): 5-10%
- loss of myotubes ([4]; by 5 days): almost complete loss of myotubes
- myotube morphology / thickness ([4]; increasing concentrations (0-10 μM) vs vehicle): myotubes became progressively thinner
- treatment time after which morphological changes were visible ([4]; myotube cultures): 24 hours

SMILES: COCc1c(C(C)C)nc(C(C)C)c(/C=C/[C@@H](O)C[C@@H](O)CC(=O)O)c1-c1ccc(F)cc1 [cerivastatin]
- rhabdomyolysis-related deaths [5]: approximately 100

SMILES: CCC(C)(C)C(=O)O[C@H]1C[C@@H](C)C=C2C=C[C@H](C)[C@H](CC[C@@H]3C[C@@H](O)CC(=O)O3)[C@H]21 [simvastatin]
- CK (clinical data) [2]: Weakness, CK 51,080; also recorded: Weakness, CK 8,264; also recorded: Weakness, CK 39,000; also recorded: Muscle pain and weakness, CK 62; also recorded: Muscle pain and weakness, CK 649

SMILES: CC(C)c1c(C(=O)Nc2ccccc2)c(-c2ccccc2)c(-c2ccc(F)cc2)n1CC[C@@H](O)C[C@@H](O)CC(=O)O [atorvastatin]
- CK (clinical data) [2]: Muscle pain and weakness, CK 47; also recorded: Muscle pain and weakness, CK 73
